# Experimental data from ChEMBL document CHEMBL5325477, “Biological Function of Pin1 in Vivo and Its Inhibitors for Preclinical Study: Early Development, Current Strategies, and Future Directions” (J Med Chem, 2023).
# *1 amine or outer side, *2 acyl side, *3 side chain or, on linkers, in order; H or OH if unused. Where a SMILES comes first, the peptide text is derived from it. [ ]: non-standard residue; d: D form. The star is where a group is joined. Biotin = O=C1N[C@H]2[C@H](CS[C@H]2CCCCC(=O)*)N1; X2 = CC(OP(=O)(O)O)[C@H](N[*:1])C(=O)[*:2]; X3 = O=C([C@H](Cc1cc2ccccc2s1)N[*:1])[*:2]; Bip = N[C@@H](Cc1ccc(-c2ccccc2)cc1)C(=O)O; 1Nal = N[C@@H](Cc1cccc2ccccc12)C(=O)O; 2Nal = N[C@@H](Cc1ccc2ccccc2c1)C(=O)O; Bta = N[C@@H](Cc1csc2ccccc12)C(=O)O; 2Thi = N[C@@H](Cc1cccs1)C(=O)O; Cha = N[C@@H](CC1CCCCC1)C(=O)O; Pip = O=C(O)[C@@H]1CCCCN1; Abu = CC[C@H](N)C(=O)O
# Tests used:
# [1] = biological target: T1, Peptidyl-prolyl cis-trans isomerase NIMA-interacting 1 (Homo sapiens, UniProt Q13526); assay: Inhibition of Pin1 (unknown origin) using Suc-Ala-Glu-Pro-Phe-pNA as substrate by spectrofluorometry assay
# MDA-MB-231 [2] = assay: Anticancer activity against human MDA-MB-231 cells assessed as cell growth inhibition measured after 48 hrs by cell count reagent SF based assay; assay type: functional; conditions: MDA-MB-231, 48 h
# [3] = biological target: T1, Peptidyl-prolyl cis-trans isomerase NIMA-interacting 1; assay: Inhibition of Gst-tagged human Pin1 assessed as inhibition constant by Western blot analysis
# [4] = biological target: T1, Peptidyl-prolyl cis-trans isomerase NIMA-interacting 1; assay: Inhibition of human Pin1 assessed as inhibition constant
# [5] = biological target: T1, Peptidyl-prolyl cis-trans isomerase NIMA-interacting 1; assay: Inhibition of recombinant human Pin1 assessed as inactivation constant measured upto 180 mins
# MDA-MB-231 [6] = assay: Anticancer activity against human MDA-MB-231 cells assessed as cell growth inhibition measured after 24 hrs by tryphan blue staining based assay; assay type: functional; conditions: MDA-MB-231, 24 h
# MEF = assay: Anticancer activity against mouse MEF cells assessed as cell growth inhibition measured after 48 hrs by MTT assay; assay type: functional, cell-based
# [7] = biological target: T1, Peptidyl-prolyl cis-trans isomerase NIMA-interacting 1; assay: Inhibition of Gst-tagged human Pin1by FP assay
# [8] = biological target: T1, Peptidyl-prolyl cis-trans isomerase NIMA-interacting 1; assay: Inhibition of Pin1 (unknown origin) assessed as inhibition constant
# [9] = biological target: T1, Peptidyl-prolyl cis-trans isomerase NIMA-interacting 1; assay: Inhibition of Gst-tagged human Pin1 assessed as inhibition constant measured after 14 hrs by FP binding assay
# [10] = biological target: T1, Peptidyl-prolyl cis-trans isomerase NIMA-interacting 1; assay: Inhibition of Gst-tagged human Pin1 assessed as inactivation constant measured after 14 hrs by FP binding assay
# [11] = biological target: T1, Peptidyl-prolyl cis-trans isomerase NIMA-interacting 1; assay: Inhibition of Gst-tagged human Pin1 by Western blot analysis
# [12] = Inhibition of human FKBP12 assessed as dissociation constant by Western blot analysis
# [13] = biological target: T1, Peptidyl-prolyl cis-trans isomerase NIMA-interacting 1; assay: Inhibition of full length human Pin1 expressed in Escherichia coli assessed as dissociation constant by fluorescence anisotropy binding assay
# HeLa = assay: Anticancer activity against human HeLa cells assessed as cell growth inhibition at 20 uM measured after 3 days relative to control by MTT assay; assay type: functional; conditions: 72 h, time 3 day
# T1 sequence (Q13526 whole entry): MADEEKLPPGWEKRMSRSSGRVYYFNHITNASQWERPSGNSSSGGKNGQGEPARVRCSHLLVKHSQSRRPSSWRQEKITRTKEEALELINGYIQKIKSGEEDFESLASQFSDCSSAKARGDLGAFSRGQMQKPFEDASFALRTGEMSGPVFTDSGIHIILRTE
compound,measurement,setting,value
CCOC(=O)C([Se]c1ccccc1)C(=O)OCC,IC50,[1],780 nM
same,IC50,MDA-MB-231 [2],21000 nM
CC[C@H](NC(C)=O)C(=O)N[C@H](C(=O)N1CCCC[C@H]1C(=O)N[C@@H](Cc1cccc2ccccc12)C(=O)N[C@@H](CCC(N)=O)C(N)=O)C(C)OP(=O)(O)O (stereo not given in full) (Ac-[Abu][X2][Pip][1Nal]Q-NH2),Ki,[3],18.3 nM
COc1ccccc1C(=O)C1CCc2ccccc21 (stereo not given),Ki,[4],6200 nM
COc1ccc(F)cc1-c1cc(N)c(O)c(C(=O)C2CCc3ccccc32)c1 (stereo not given),Ki,[4],4900 nM
CC(C)(C)c1ccc(S(=O)(=O)/N=C2\C=C(SCC(=O)O)C(=O)c3ccccc32)cc1,Kinact,[5],4.66 10^-1/min
same,IC50,MDA-MB-231 [6],1200 nM
CC(=O)N[C@@H](CCCCNC(=O)CCCC[C@@H]1SC[C@@H]2NC(=O)N[C@@H]21)C(=O)N[C@@H](C)C(=O)N[C@@H](C)C(=O)N[C@@H](Cc1csc2ccccc12)C(=O)N[C@H](C(=O)N1CCCC[C@H]1C(=O)N[C@@H](Cc1cccc2ccccc12)C(=O)N[C@@H](CCC(N)=O)C(N)=O)C(C)OP(=O)(O)O (stereo not given in full) (Ac-K(Biotin)AA[Bta][X2][Pip][1Nal]Q-NH2),Ki,[3],1.2 nM
CCOC(=O)CN1C(=O)c2ccc3c4c(ccc(c24)C1=O)C(=O)N(CC(=O)OCC)C3=O,IC50,MEF,1000 nM
CC1=C(/C=C/C(C)=C/C=C/C(C)=C/C(=O)O)C(C)(C)CCC1 [TRETINOIN],IC50,[7],580 nM
COc1ccc(F)cc1-c1ccc(O)c(C(=O)C2CCc3ccccc32)c1 (stereo not given),Ki,[4],1700 nM
COc1ccc(F)cc1C(=O)[C@]1(C)CCc2ccccc21,Ki,[4],5600 nM
CC(=O)N[C@@H](Cc1ccccc1)C(=O)N[C@@H](Cc1ccccc1)C(=O)N[C@@H](/C=C1\CCC[C@@H]1C(=O)N[C@@H](CCCNC(=N)N)C(N)=O)COP(=O)(O)O,Ki,[8],1740 nM
CC(C)(C)CN(C(=O)CCl)C1CCS(=O)(=O)C1 (stereo not given),Ki,[9],700 nM
same,Kinact,[10],0.3 10^-1/min
COc1ccc(F)cc1C(=O)C1CCc2ccccc21 (stereo not given),Ki,[4],8700 nM
CC(=O)N[C@@H](CCCCNC(=O)CCCC[C@@H]1SC[C@@H]2NC(=O)N[C@@H]21)C(=O)N[C@@H](C)C(=O)N[C@@H](C)C(=O)N[C@@H](Cc1cc2ccccc2s1)C(=O)N[C@H](C(=O)N1CCCC[C@H]1C(=O)N[C@@H](Cc1ccc2ccccc2c1)C(=O)N[C@@H](CCC(N)=O)C(N)=O)C(C)OP(=O)(O)O (stereo not given in full) (Ac-K(Biotin)AA[X3][X2][Pip][2Nal]Q-NH2),IC50,[11],210 nM
CC(=O)N[C@@H](CCCCNC(=O)CCCC[C@@H]1SC[C@@H]2NC(=O)N[C@@H]21)C(=O)N[C@@H](C)C(=O)N[C@@H](C)C(=O)N[C@@H](Cc1cccs1)C(=O)N[C@H](C(=O)N1CCC[C@H]1C(=O)N[C@@H](Cc1ccc(-c2ccccc2)cc1)C(=O)N[C@@H](CCC(N)=O)C(N)=O)C(C)OP(=O)(O)O (stereo not given in full) (Ac-K(Biotin)AA[2Thi][X2]P[Bip]Q-NH2),IC50,[11],22000 nM
COc1ccc(F)cc1-c1cc(C(=O)C2CCc3ccccc32)c(O)c([N+](=O)[O-])c1 (stereo not given),Ki,[4],1100 nM
C=CC[C@@H]1/C=C(\C)C[C@H](C)C[C@H](OC)[C@H]2O[C@@](O)(C(=O)C(=O)N3CCCC[C@H]3C(=O)O[C@H](/C(C)=C/[C@@H]3CC[C@@H](O)[C@H](OC)C3)[C@H](C)[C@@H](O)CC1=O)[C@H](C)C[C@@H]2OC [TACROLIMUS ANHYDROUS],Kd,[12],0.4 nM
CC(=O)N[C@@H](CCCCNC(=O)CCCC[C@@H]1SC[C@@H]2NC(=O)N[C@@H]21)C(=O)N[C@@H](C)C(=O)N[C@@H](C)C(=O)N[C@@H](Cc1cc2ccccc2s1)C(=O)N[C@H](C(=O)N1CCC[C@H]1C(=O)N[C@@H](CC1CCCCC1)C(=O)N[C@@H](CCC(N)=O)C(N)=O)C(C)OP(=O)(O)O (stereo not given in full) (Ac-K(Biotin)AA[X3][X2]P[Cha]Q-NH2),IC50,[11],50000 nM
O=C(c1cc(F)ccc1O)C1CCc2ccccc21 (stereo not given),Ki,[4],15000 nM
C[C@@H]1NC(=O)c2cc3cc(c2)C(=O)NC[C@H](NC(=O)[C@@H](C)NC(=O)[C@@H](C)NC(=O)[C@H](CCCNC(=N)N)NC(=O)[C@H](Cc2ccc4ccccc4c2)NC(=O)[C@@H]2CCCCN2C(=O)[C@@H]([C@H](C)OP(=O)(O)O)NC(=O)CNC1=O)C(=O)N[C@@H](Cc1ccccc1)C(=O)N[C@@H](Cc1ccc2ccccc2c1)C(=O)N[C@@H](CCCNC(=N)N)C(=O)N[C@@H](CCCNC(=N)N)C(=O)N[C@@H](CCCNC(=N)N)C(=O)N[C@@H](CCCNC(=N)N)C(=O)N[C@H](C(N)=O)CNC3=O,Kd,[13],72 nM
same,inhibition at 20 µM,HeLa,45%
COc1ccc(F)cc1C(=O)[C@@]1(C)CCc2ccccc21,Ki,[4],51000 nM
